# In patent US9682083B2, “Pyrrolo[2,3-D]pyrimidine derivatives, process for their preparation and their use as kinase inhibitors” (NERVIANO MEDICAL SCIENCES S.R.L., priority 2013, dated 2017):
# pIC50: −log10 of the molar value.
# Legend:
# Type in all cases: cell-based
# [1] = system: A2780 ovarian carcinoma; experiment: In vitro cell proliferation assay (CellTiterGlo), A2780 control line; conditions: Homo sapiens, antiproliferative activity, 72 hours exposure, non RET-dependent control cell line
# Procedure: (§1) In Vitro Cell Proliferation Assay
# (§2) To evaluate the antiproliferative activity of a compound of formula (I) the following human cell lines were used: A2780 ovarian carcinoma; TT and MZ-CRC-1 medullary thyroid carcinoma, harboring a mutated RET-C634W and RET-M918T receptor respectively; LC-2/ad human lung adenocarcinoma, harboring the CCDC6-RET fusion protein. Exponentially growing cells were seeded and incubated at 37° C. in a humidified 5% CO2 atmosphere using appropriate medium supplemented with 10% Fetal Bovine Serum. 24 hours following cell plating, scalar doses of the compounds dissolved in 0.1% DMSO were added to the medium and cells were exposed to drugs for either 72 hours (A2780) or 144 hours (TT, MZ-CRC-1 and LC-2/ad), according to their different proliferation rate. At the end of treatment, cell proliferation was determined by an intracellular ATP monitoring system (CellTiterGlo—Promega), following manufacturer's instructions, and using an Envision instrument (PerkinElmer) as reader. Data obtained from compound versus vehicle treated cells were compared using Assay Explorer (Symyx Technologies Inc) software. IC50 values were calculated using sigmoidal interpolation curve fitting.
# (§3) In the following Table A the antiproliferative activity of representative compounds of formula (I) on two medullary thyroid carcinoma cell lines expressing the aforementioned mutated forms of RET (TT and MZ-CRC-1) and on one lung adenocarcinoma cell line harboring the aforementioned fusion form of RET (LC-2/ad) is reported. As control, the antiproliferative activity of the same compounds on an unrelated non RET-dependent cell line (A2780) is reported. All these compounds show remarkable activity on RET-driven cellular models with respect to the unrelated ones.
# [2] = system: TT medullary thyroid carcinoma, harboring a mutated RET-C634W receptor; experiment: In vitro cell proliferation assay (CellTiterGlo), TT; conditions: Homo sapiens, antiproliferative activity, 144 h exposure
# Procedure: as §1, §2, §3
# [3] = system: LC-2/ad human lung adenocarcinoma, harboring the CCDC6-RET fusion protein; experiment: In vitro cell proliferation assay (CellTiterGlo), LC-2/ad; conditions: antiproliferative activity, 144 h exposure
# Procedure: as §1, §2, §3
# [4] = system: MZ-CRC-1 medullary thyroid carcinoma, harboring a mutated RET-M918T receptor; experiment: In vitro cell proliferation assay (CellTiterGlo), MZ-CRC-1; conditions: Homo sapiens, antiproliferative activity, 144 h exposure
# Procedure: as §1, §2, §3
structure (smiles),measurement,setting,value
"Nc1ncnc2c1c(C#Cc1cc(F)cc(C(=O)NC3CC3)c1)cn2CC(F)(F)F [cmpd 59, 3-{[4-amino-7-(2,2,2-trifluoroethyl)-7H-pyrrolo[2,3-d]pyrimidin-5-yl]ethynyl}-N-cyclopropyl-5-fluorobenzamide]",pIC50,[1],5.67
same,IC50,[2],0.036 µM
same,IC50,[3],0.048 µM
same,IC50,[4],0.04 µM
"Cn1cc(C#Cc2cccc(C(=O)NC3CC3)c2)c2c(N)ncnc21 [cmpd 93, 3-[(4-amino-7-methyl-7H-pyrrolo[2,3-d]pyrimidin-5-yl)ethynyl]-N-cyclopropylbenzamide]",pIC50,[1],5.34
same,IC50,[2],0.035 µM
same,IC50,[3],0.241 µM
same,IC50,[4],0.264 µM
